# Test results from patent US20260023068A1, “USE OF A FBXO42 SPECIFIC INHIBITOR IN TREATING NOTCH SIGNALING-DEPENDENT DISEASE” (WESTLAKE UNIVERSITY, priority 2022, published 2026).
# Assays:
# JURKAT xenograft = assay type: in vivo; conditions: 30 mg/kg subcutaneously twice daily for 21 days, BALB/c nude mice (FIG. 13S-V)
# Protocol: (A-H) Xenograft tumor growth studies were performed with WT or FBXO42-KO JURKAT (A-D) and HSB2 (E-H) cells. Mice were euthanized 4 weeks after tumor cell injection. The tumors were excised, photographed, and weighed. The volumes (B and F) and weights (C and G) of the tumors were measured, respectively. The mRNA levels of Notch target genes in tumors were determined by qPCR, respectively (D and H). (I-K) In vivo leukemia mouse model was established by injecting WT and FBXO42-KO JURKAT cells carrying GFP into NSG mice intravenously. The percentage of GFP^+ leukemia cells in peripheral blood was measured weekly by flow cytometry analysis (I) and summarized (K). […] (L-O) Spleens in mice from different groups were excised, a representative image is shown (L), and the spleen weight was measured (M). Tumor cell invasion was evaluated by measuring GFP intensity by fluorescence microscopy (N) and hemoxylin and eosin staining (O). […] The volumes (S) and weights (T) of the tumors and mouse weight (U) were measured. (A-O, S-V, n=5, P-R, n=10) Quantitative data are presented as mean±SEM. P values were calculated using two-tailed Student's t-tests. *P<0.05, **P<0.01, NS, not significant.
# For the evaluation of MLN4924 efficacy in vivo, 6- to 8-week-old female BALB/c nude mice were inoculated with 5×10^6 JURKAT cells subcutaneously in the right flank, and tumor growth was monitored with caliper measurements. […]
# [1] = system: FBXO42-mediated K63-linked polyubiquitination of RBPJ; test: In vivo ubiquitination assay of RBPJ in transfected HEK293T cells; assay type: cell-based, human; conditions: DMSO or MLN4924, western blotting (FIG. 4K)
# Protocol: (A) cSFB-RBPJ, hemagglutinin-ubiquitin (HA-Ub) and Myc-FBXO42 WT were cotransfected into HEK293T cells as indicated and treated with or without MG132 for 4 h. The cell lysates were incubated with S beads and analyzed by western blotting for RBPJ polyubiquitination detection. (B) Immunoprecipitated endogenous RBPJ products from WT and FBXO42 KO cells were immunoblotted for Ub. (C) cSFB-RBPJ, hemagglutinin-ubiquitin (HA-Ub) and Myc-FBXO42 WT or AF mutant were cotransfected into HEK293T cells. The cell lysate was collected and analyzed for RBPJ polyubiquitination. (D) HEK293T cells were transfected with cSFB-RBPJ, Myc-FBXO42 and HA-Ub with or without FLAG-NICD1 overexpression. The cell lysates were incubated with S beads and analyzed by western blotting for RBPJ polyubiquitination detection. […] The degree of RBPJ polyubiquitination was evaluated as described above. […] The cell lysates were incubated with S beads and analyzed by western blotting for RBPJ polyubiquitination detection. […] (J) Quantitation of the results shown in (I). […] The cell lysates were analyzed for RBPJ ubiquitination. […] (P) Efficiency of RBPJ short interfering RNAs (siRNAs) detected via western blotting. […] Quantitative data are presented as mean±SEM. P values were calculated using two-tailed Student's t-tests or ANOVA for multiple comparison. *P<0.05, **P<0.01, ***P<0.001, ##P<0.01 vs. FBXO42. […]
structure (smiles),measurement,setting,value
NS(=O)(=O)OC[C@@H]1C[C@@H](n2ccc3c(N[C@H]4CCc5ccccc54)ncnc32)C[C@@H]1O [MLN4924],leukemia burden in vivo (tumor growth rate),JURKAT xenograft,reduced
same,FBXO42-mediated K63-linked polyubiquitination of RBPJ,[1],effectively abrogated
